Source: US7384965B2, “Fused heterocyclic derivatives as PPAR modulators” (Eli Lilly and Company, priority 2003, dated 2008)

Row | Structure (SMILES) | melting point
1 | Cc1cc(SC(C)c2ccc3nc(-c4ccc(C(F)(F)F)cc4)sc3c2)ccc1OCC(=O)O (racemic) [Example 62, (+/−)-2-Methyl-4-{1-[2-(4-trifluoromethylphenyl)benzothiazol-6-yl]ethylsulfanyl}phenoxyacetic Acid] | 170 to 173 °C
2 | Cc1cc(SC(C)c2ccc3nc(-c4ccc(C(F)(F)F)cc4)sc3c2)ccc1CCC(=O)O (racemic) [Example 63, (+/−)-3-(2-Methyl-4-{1-[2-(4-trifluoromethylphenyl)benzothiazol-6-yl]ethylsulfanyl}phenyl)propionic Acid] | 159 to 161 °C
3 | CCC(Sc1ccc(CCC(=O)O)c(C)c1)c1ccc2nc(-c3ccc(C(F)(F)F)cc3)sc2c1 (racemic) [Example 64, (+/−)-3-(2-Methyl-4-{1-[2-(4-trifluoromethylphenyl)benzothiazol-6-yl]propylsulfanyl}phenyl)propionic Acid] | 105 to 108 °C
4 | Cc1cc(SC(C)c2cccc3nc(-c4ccc(C(F)(F)F)cc4)oc23)ccc1OCC(=O)O (racemic) [Example 79, (+/−)-2-Methyl-4-{1-[2-(4-trifluoromethylphenyl)benzooxazol-7-yl]ethylsulfanyl}phenoxyacetic Acid] | 134 to 138 °C
5 | Cc1cc(SC(C)c2cccc3nc(-c4ccc(C(F)(F)F)cc4)oc23)ccc1CCC(=O)O (racemic) [Example 80, (+/−)-3-(2-Methyl-4-{1-[2-(4-trifluoromethylphenyl)benzooxazol-7-yl]ethylsulfanyl}phenyl)propionic Acid] | 128 to 130 °C
6 | CCc1cc(SC(C)c2cccc3nc(-c4ccc(C(F)(F)F)cc4)oc23)ccc1OCC(=O)O (racemic) [Example 81, (+/−)-2-Ethyl-4-{1-[2-(4-trifluoromethylphenyl)benzooxazol-7-yl]ethylsulfanyl}phenoxyacetic Acid] | 172 to 175 °C
7 | CC(Sc1ccc2c(CC(=O)O)csc2c1)c1cccc2nc(-c3ccc(C(F)(F)F)cc3)oc12 (racemic) [Example 82, (+/−)-6-{1-[2-(4-Trifluoromethylphenyl)benzooxazol-7-yl]ethylsulfanyl}benzo[b]thiophen-3-ylacetic Acid] | 195 to 198 °C
8 | Cc1cc(OC(C)c2cccc3nc(-c4ccc(C(F)(F)F)cc4)oc23)ccc1CCC(=O)O (racemic) [Example 83, (+/−)-3-(2-Methyl-4-{1-[2-(4-trifluoromethylphenyl)benzooxazol-7-yl]ethoxy}phenyl)propionic Acid] | 142 to 144 °C
9 | CCc1cc(OC(C)c2cccc3nc(-c4ccc(C(F)(F)F)cc4)oc23)ccc1CCC(=O)O (racemic) [Example 84, (+/−)-3-(2-Ethyl-4-{1-[2-(4-trifluoromethylphenyl)benzooxazol-7-yl]ethoxy}phenyl)propionic Acid] | 60 to 63 °C
10 | CCc1cc(SCc2cccc3sc(-c4ccc(C(F)(F)F)cc4)nc23)ccc1OCC(=O)O [Example 40] | 89 to 92 °C
11 | O=C(O)Cc1cccc(SCc2cccc3sc(-c4ccc(C(F)(F)F)cc4)nc23)c1 [Example 41] | 140 to 143 °C
12 | O=C(O)Cc1csc2cc(OCc3cccc4sc(-c5ccc(C(F)(F)F)cc5)nc34)ccc12 [Example 42, 6-[2-(4-Trifluoromethylphenyl)benzothiazol-4-ylmethoxy]benzo[b]thiophen-3-ylacetic Acid] | 185 to 190 °C
13 | O=C(O)Cc1csc2cc(SCc3cccc4sc(-c5ccc(C(F)(F)F)cc5)nc34)ccc12 [Example 43] | 168 to 170 °C
14 | Cc1cc(SCc2cccc3nc(-c4ccc(C(F)(F)F)cc4)sc23)ccc1OCC(=O)O [Example 44, 2-Methyl-4-[2-(4-trifluoromethylphenyl)benzothiazol-7-ylmethylsulfanyl]phenoxyacetic Acid] | 193 to 196 °C
15 | CCc1cc(SCc2cccc3nc(-c4ccc(C(F)(F)F)cc4)sc23)ccc1OCC(=O)O [Example 45, 2-Ethyl-4-[2-(4-trifluoromethylphenyl)benzothiazol-7-ylmethylsulfanyl]phenoxyacetic Acid] | 160 to 164 °C
16 | Cc1cc(SCc2cccc3nc(-c4ccc(C(F)(F)F)cc4)sc23)ccc1CCC(=O)O [Example 46, 3-{2-Methyl-4-[2-(4-trifluoromethylphenyl)benzothiazol-7-ylmethylsulfanyl]phenyl}propionic Acid] | 136 to 139 °C
17 | O=C(O)Cc1csc2cc(SCc3cccc4nc(-c5ccc(C(F)(F)F)cc5)sc34)ccc12 [Example 47, 6-[2-(4-Trifluoromethylphenyl)benzothiazol-7-ylmethylsulfanyl]benzo[b]thiophen-3-ylacetic Acid] | 201 to 204 °C
18 | Cc1cc(SCCc2cccc3sc(-c4ccc(C(F)(F)F)cc4)nc23)ccc1OCC(=O)O [Example 48, 2-Methyl-4-{2-[2-(4-trifluoromethylphenyl)benzothiazol-4-yl]ethylsulfanyl}phenoxyacetic Acid] | 97 to 100 °C
19 | Cc1cc(SCCc2cccc3sc(-c4ccc(C(F)(F)F)cc4)nc23)ccc1CCC(=O)O [Example 49, 3-(2-Methyl-4-{2-[2-(4-trifluoromethylphenyl)benzothiazol-4-yl]ethylsulfanyl}phenyl)propionic Acid] | 118 to 120 °C

Row | Structure (SMILES) | melting point
20 | CCc1cc(SCCc2cccc3sc(-c4ccc(C(F)(F)F)cc4)nc23)ccc1OCC(=O)O [Example 50, 2-Ethyl-4-{2-[2-(4-trifluoromethylphenyl)benzothiazol-4-yl]ethylsulfanyl}phenoxyacetic Acid] | 84 to 86 °C
21 | Cc1cc(SCc2ccc3sc(-c4ccc(C(F)(F)F)cc4)nc3c2)ccc1OCC(=O)O [Example 51, 2-Methyl-4-[2-(4-trifluoromethylphenyl)benzothiazol-5-ylmethylsulfanyl]phenoxyacetic Acid] | 138 to 140 °C
22 | Cc1cc(SCc2ccc3sc(-c4ccc(C(F)(F)F)cc4)nc3c2)ccc1CCC(=O)O [Example 52, 3-{2-Methyl-4-[2-(4-trifluoromethylphenyl)benzothiazol-5-ylmethylsulfanyl]phenyl}propionic Acid] | 141 to 143 °C
23 | CCc1cc(SCc2ccc3sc(-c4ccc(C(F)(F)F)cc4)nc3c2)ccc1OCC(=O)O [Example 53, 2-Ethyl-4-[2-(4-trifluoromethylphenyl)benzothiazol-5-ylmethylsulfanyl]phenoxyacetic Acid] | 140 to 142 °C
24 | Cc1cc(OCc2ccc3sc(-c4ccc(C(F)(F)F)cc4)nc3c2)ccc1CCC(=O)O [Example 54, 3-{2-Methyl-4-[2-(4-trifluoromethylphenyl)benzothiazol-5-ylmethoxy]phenyl}propionic Acid] | 174 to 176 °C
25 | CCc1cc(OCc2ccc3sc(-c4ccc(C(F)(F)F)cc4)nc3c2)ccc1CCC(=O)O [Example 55, 3-{2-Ethyl-4-[2-(4-trifluoromethylphenyl)benzothiazol-5-ylmethoxy]phenyl}propionic Acid] | 188 to 190 °C
26 | Cc1cc(SCCc2ccc3sc(-c4ccc(C(F)(F)F)cc4)nc3c2)ccc1CCC(=O)O [Example 56, 3-(2-Methyl-4-{2-[2-(4-trifluoromethylphenyl)benzothiazol-5-yl]ethylsulfanyl}phenyl)propionic Acid] | 108 to 110 °C
27 | Cc1cc(SCc2ccc3nc(-c4ccc(C(F)(F)F)cc4)sc3c2)ccc1OCC(=O)O [Example 57, 2-Methyl-4-[2-(4-trifluoromethylphenyl)benzothiazol-6-ylmethylsulfanyl]phenoxyacetic Acid] | 176 to 177 °C
28 | Cc1cc(SCc2ccc3nc(-c4ccc(C(F)(F)F)cc4)sc3c2)ccc1CCC(=O)O [Example 58, 3-{2-Methyl-4-[2-(4-trifluoromethylphenyl)benzothiazol-6-ylmethylsulfanyl]phenyl}propionic Acid] | 194 to 196 °C
29 | CCc1cc(SCc2ccc3nc(-c4ccc(C(F)(F)F)cc4)sc3c2)ccc1OCC(=O)O [Example 59, 2-Ethyl-4-[2-(4-trifluoromethylphenyl)benzothiazol-6-ylmethylsulfanyl]phenoxyacetic Acid] | 144 to 147 °C
30 | Cc1cc(OCc2ccc3nc(-c4ccc(C(F)(F)F)cc4)sc3c2)ccc1CCC(=O)O [Example 60, 3-{2-Methyl-4-[2-(4-trifluoromethylphenyl)benzothiazol-6-ylmethoxy]phenyl}propionic Acid] | 198 to 200 °C
31 | CCc1cc(OCc2ccc3nc(-c4ccc(C(F)(F)F)cc4)sc3c2)ccc1CCC(=O)O [Example 61, 3-{2-Ethyl-4-[2-(4-trifluoromethylphenyl)benzothiazol-6-ylmethoxy]phenyl}propionic Acid] | 203 to 205 °C
32 | Cc1cc(SCc2cccc3oc(-c4ccc(C(F)(F)F)cc4)nc23)ccc1OCC(=O)O [Example 65, 2-Methyl-4-[2-(4-trifluoromethylphenyl)benzooxazol-4-ylmethylsulfanyl]-phenoxyacetic Acid] | 160 to 162 °C (dec.)
33 | Cc1cc(SCc2cccc3oc(-c4ccc(C(F)(F)F)cc4)nc23)ccc1CCC(=O)O [Example 66, 3-2-Methyl-4-[2-(4-trifluoromethylphenyl)benzooxazol-4-ylmethylsulfanyl]phenylpropionic Acid] | 181 to 183 °C
34 | CCc1cc(SCc2cccc3oc(-c4ccc(C(F)(F)F)cc4)nc23)ccc1OCC(=O)O [Example 67, 2-Ethyl-4-[2-(4-trifluoromethylphenyl)benzooxazol-4-ylmethylsulfanyl]phenoxyacetic Acid] | 127 to 128 °C
35 | Cc1cc(SCc2cccc3nc(-c4ccc(C(F)(F)F)cc4)oc23)ccc1OCC(=O)O [Example 68, 2-Methyl-4-[2-(4-trifluoromethylphenyl)-benzooxazol-7-ylmethylsulfanyl]-phenoxyacetic Acid] | 180 to 182 °C
36 | Cc1cc(SCc2cccc3nc(-c4ccc(C(F)(F)F)cc4)oc23)ccc1CCC(=O)O [Example 69, 3-{2-Methyl-4-[2-(4-trifluoromethylphenyl)benzooxazol-7-ylmethylsulfanyl]phenyl}propionic Acid] | 155 to 157 °C
37 | O=C(O)Cc1csc2cc(OCc3cccc4nc(-c5ccc(C(F)(F)F)cc5)oc34)ccc12 [Example 70, 6-[2-(4-Trifluoromethylphenyl)benzooxazol-7-ylmethoxy]benzo[b]thiophen-3-ylacetic Acid] | 215 to 216 °C
